# Assay results published in article PMC6934184, “Selective DNA-PKcs inhibition extends the therapeutic index of localized radiotherapy and chemotherapy” (The Journal of Clinical Investigation, 2019).
# Biological target: T1, EPHB1 (Homo sapiens, UniProt P54762)
# T1 construct: purchased Thermo Fisher Scientific (Life Technologies) SelectScreen
# Assay: SelectScreen Z'LYTE
# Assay type: biochemical
# Outline: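 NU5455 was profiled across the SelectScreen Broad panel of kinase activity and binding assays. Z'LYTE reactions such as CSF1R ran at apparent Km ATP, while the Adapta CAMK1 assay used ATP listed as 10. Values are given as percent.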
# T1 sequence (P54762 18-984): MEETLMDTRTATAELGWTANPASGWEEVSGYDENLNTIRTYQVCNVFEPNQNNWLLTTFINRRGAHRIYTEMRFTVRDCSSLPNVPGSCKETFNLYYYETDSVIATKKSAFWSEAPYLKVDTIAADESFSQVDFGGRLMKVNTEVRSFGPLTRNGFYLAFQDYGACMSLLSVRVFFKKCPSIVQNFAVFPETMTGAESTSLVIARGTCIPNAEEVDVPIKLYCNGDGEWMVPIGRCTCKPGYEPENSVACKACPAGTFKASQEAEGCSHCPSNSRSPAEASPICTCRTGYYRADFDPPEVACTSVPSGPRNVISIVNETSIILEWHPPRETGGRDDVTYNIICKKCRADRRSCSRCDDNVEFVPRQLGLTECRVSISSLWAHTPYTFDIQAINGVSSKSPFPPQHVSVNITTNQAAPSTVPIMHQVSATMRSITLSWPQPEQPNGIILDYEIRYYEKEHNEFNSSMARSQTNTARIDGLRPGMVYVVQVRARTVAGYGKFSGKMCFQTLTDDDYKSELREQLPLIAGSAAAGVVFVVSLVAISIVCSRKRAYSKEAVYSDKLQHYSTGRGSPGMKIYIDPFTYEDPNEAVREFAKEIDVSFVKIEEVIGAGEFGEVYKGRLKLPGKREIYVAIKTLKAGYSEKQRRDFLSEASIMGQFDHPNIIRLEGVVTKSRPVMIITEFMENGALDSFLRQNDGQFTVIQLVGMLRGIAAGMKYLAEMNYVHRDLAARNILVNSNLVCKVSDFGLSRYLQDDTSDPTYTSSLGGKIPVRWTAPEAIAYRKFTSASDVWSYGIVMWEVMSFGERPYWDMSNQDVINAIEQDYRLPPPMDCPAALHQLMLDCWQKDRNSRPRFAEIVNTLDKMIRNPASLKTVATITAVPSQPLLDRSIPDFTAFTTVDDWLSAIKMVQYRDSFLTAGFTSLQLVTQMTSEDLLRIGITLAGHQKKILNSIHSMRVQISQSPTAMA
smiles,measurement,value
CN(C(=O)CN1CCOCC1)c1ccc2sc3c(-c4cccc5c(=O)cc(N6CC7CCC(C6)O7)oc45)cccc3c2c1 [NU5455],inhibition at 1 µM,5.1%
